# In US10428043B2, “Green oxidation catalytic system” (TRUSTEES OF BOSTON UNIVERSITY, priority 2014, dated 2019):
# Where “and” joins values, the source holds several entries; their conditions need not be identical. Equal values may be shown once. Read-outs that look alike come from different tables or passages of the source.
# Experiments:
# [1] = Cyclic voltammetry, redox potentials; type: physicochemical
# Text: All reagents and solvents used were purchased from commercial sources and used as received unless otherwise noted. Prior to use, methanol (Pharmco-Aaper) was distilled over magnesium metal, dimethyl sulfoxide (Fisher Scientific) was distilled over calcium hydride, triethylamine was distilled over sodium metal and unstabilized dichloromethane (Fisher Scientific) was distilled over calcium hydride. Ferrocene was purified by sublimation for use as a reference for electrochemical analyses. All manipulations involving ferrous complexes were carried out in an inert atmosphere glovebox (M. Braun, Stratham, N.H.) with distilled and thoroughly degassed solvents. UV/Vis spectra were collected using a Hewlett Packard Spectrometer (8453). IR spectra were collected using a Thermo Nicolet AVATAR 330-FT-IR. Cyclic voltammetry experiments were performed using a Princeton Applied Research model 273 potentiostat with a glassy carbon working electrode, a silver wire reference electrode and a platinum wire counter electrode. Electron Paramagnetic Resonance (EPR) spectra were collected on a Bruker ESP-300E spectrometer operating at 9.460 GHz. NMR spectra were recorded at 25° C. using a Varian spectrometer operating at 400 MHz with all chemical shifts referenced to SiMe4. Iron concentrations were determined using a Varian AA240Z Atomic Absorption Spectrometer.
# Cyclic voltammetry was performed inside an inert atmosphere (N2) box, with degassed DMSO as the solvent and tetra-N-butylammonium hexafluorophosphate as the supporting electrolyte (0.2M). The ferrocenium/ferrocene couple was used as an internal reference; reduction potential values were corrected by assigning the ferrocenium/ferrocene couple to 0.64 V versus NHE (Zanello, P. Inorganic Electrochemistry; The Royal Society of Chemistry: Cambridge, 2003). Chloride titration experiments were performed by collecting CV data after the addition of one and two 50 μL aliquots of 204 mM [NEt4][Cl] to 3.0 mL of 3.4 mM [Fe^II(N2O1py)(Cl)2]^− (concentration determined using flame atomic absorption spectroscopy) and correcting the potential with reference to the ferrocenium/ferrocene couple.
# It should be noted that these redox potentials were determined in the absence of excess halide, and further CV studies will be performed in the presence of excess halide for all derivatives of the N2O1py system.
# [2] = Room temperature O2 reactivity of ferrous complexes followed by UV/vis
# Protocol: The solution was transferred to an anaerobic UV/vis cell and sealed. An initial spectrum was obtained of the ferrous complex, and then the solution was exposed to the air. Spectra were recorded every minute for the first two minutes and then every 5-30 minutes after that for seven hours. The absorbance was monitored at 350 nm to follow formation of the oxidized complex.
# This solution was then transferred to an anaerobic UV/vis cell and sealed. An initial spectrum was obtained of the ferrous complex, and then the solution was exposed to the air. Spectra were collected every minute for the first 30 minutes and then every 5-20 minutes after that for 2 hours. The absorbance was monitored at 315 nm to follow formation of the oxidized complex.
# Solubility = type: physicochemical
# [3] = vs. NHE, quasi-reversible; Thesis of Tarves 2012; cited from earlier work
# [4] = Low-temperature stopped-flow kinetics of adduct complexes with dioxygen; conditions: −85° C.
# Protocol: Stopped-flow Spectroscopy and Data analysis.
# Kinetic studies of [Fe^II(N2O1)(α-KG)(CH3OH)]^− and [Fe^II(N2O1)(p-X-BF)(CH3OH)]^− adduct complexes with dioxygen. Low-temperature stopped flow studies of this reaction were performed.
# Order dependence analysis.
# The kinetic model was built by starting from simple two- and three-exponential processes.
# Stoichiometry of the equations for the proposed model in FIG. 29: […]
# [5] = Catalytic oxidation of methanol to formaldehyde with α-KG and O2 (Nash assay)
# [6] = calculated from redox potentials for the one-electron transfer between iron and dioxygen
# [7] = [24] 1.0 mM, O2 5 mM, benzoate 3.1 mM
# [8] = complex 0.94-1.1 mM, O2 5 mM, methanol
compound,measurement,setting,value
"CN(CC(=O)[O-])Cc1ccccn1.[Cl-].[Cl-].[Fe+2] [[Fe^II(N2O1py)(Cl)2]^−, [PSH][Fe^II(N2O1py)(Cl)2]]",redox potential,[1],188 mV
same,E1/2,"[1]; DMSO, glassy carbon working electrode, absence of excess halide",216 mV
same,Keq,[1]; [6],1.7 × 10^−9
same,ΔG°,[1]; [6],50 kJ
same,ΔE,[1]; no added halide,96 mV
same,E1/2,"[1]; no added halide, in mV",+216
same,time for formation of the diferric oxo-bridged product on reaction with O2,[2]; methanol,> 7 h
same,solubility properties compared with the first generation catalyst,Solubility,very similar solubility properties
"CN(C)CCN(C)CC(=O)[O-].CO.O=C([O-])C(=O)c1ccccc1.[Fe+2] [compound 24, [Fe^II(N2O1)(p-H-BF)]]",E1/2,[3],60 mV
same,k′1,"[4]; [24] 0.47 mM, O2 5 mM",8.5 ± 0.2 s⁻¹
same,k′2,"[4]; [24] 0.47 mM, O2 5 mM",170 ± 8 M⁻¹ s⁻¹
same,k′2obs,"[4]; [24] 0.47 mM, O2 5 mM",0.9 ± 0.04 s⁻¹
same,k′3,"[4]; [24] 0.47 mM, O2 5 mM",21 ± 0.06 s⁻¹
same,k′4,"[4]; [24] 0.47 mM, O2 5 mM",0.2 ± 0.01 s⁻¹
same,k′2obs,"[4]; [24] 0.94 mM, O2 5 mM",0.13 ± 0.02 s⁻¹
same,k′1,[4]; [7],0.04 ± 0.01 s⁻¹
same,k′2,[4]; [7],2900 ± 500 M⁻¹ s⁻¹
same,k′3,[4]; [7],0.25 ± 0.05 s⁻¹
same,k′4obs,[4]; [7],1.1 ± 0.2 s⁻¹
same,k′1,"[4]; [24] 1.34 mM, O2 2.5 mM",7 ± 1.2 s⁻¹
same,k′2obs,"[4]; [24] 1.34 mM, O2 2.5 mM",0.2 ± 0.1 s⁻¹
same,k′3,"[4]; [24] 1.34 mM, O2 2.5 mM",14 ± 6 s⁻¹
same,k′4,"[4]; [24] 1.34 mM, O2 2.5 mM",0.2 ± 0.03 s⁻¹
same,k′1,"[4]; [24] 1.34 mM, O2 3.5 mM",9 ± 1.1 s⁻¹
same,k′2obs,"[4]; [24] 1.34 mM, O2 3.5 mM",0.5 ± 0.2 s⁻¹
same,k′3,"[4]; [24] 1.34 mM, O2 3.5 mM",16 ± 4 s⁻¹
same,k′4,"[4]; [24] 1.34 mM, O2 3.5 mM",0.3 ± 0.09 s⁻¹
same,k′1,"[4]; [24] 1.34 mM, O2 5 mM",6.1 ± 0.9 s⁻¹ and 8 ± 0.9 s⁻¹
same,k′2,"[4]; [24] 1.34 mM, O2 5 mM",150 ± 5 M⁻¹ s⁻¹
same,k′3,"[4]; [24] 1.34 mM, O2 5 mM",20 ± 1.1 s⁻¹ and 21 ± 5 s⁻¹
same,k′1,[4]; [8],7.8 ± 1.0 s⁻¹
same,k′3,[4]; [8],20 ± 0.9 s⁻¹
same,k′4 (k′4obs),[4]; [8],0.4 ± 0.03 s⁻¹
same,rate of room temperature reactivity with O2 (time),[2],~200 min
same,TON predicted from the line of best fit in FIG. 2 for the α-KG adduct complex,[5]; iron complex 0.47 mM,0.9
same,TON predicted from the line of best fit in FIG. 2 for the α-KG adduct complex,[5]; iron complex 0.94 mM,0.6
same,TON predicted from the line of best fit in FIG. 2 for the α-KG adduct complex,[5]; iron complex 1.34 mM,0.3
